# Results reported in paper PMC10657444, “Design and evaluation of tadpole-like conformational antimicrobial peptides” (Communications Biology, 2023).
# Values joined by “and” are separate entries in the source; they are usually repeats but may differ in a detail not shown here. Equal entries are not always repeated. Non-standard residues stand in square brackets, D forms with d. Residues, ends and D or L forms follow the SMILES beside them.
# Legend:
# [1] = tested on: MRSA USA 300; assay: Time-kill assay; type: cell-based, Staphylococcus aureus
# Procedure: Time-kill assays were done in tubes (in 1.5 mL of LB) and antibiotics at the 1 ×, 2 ×, 4 × and 8 × MIC. Tubes were inoculated (5 × 10^6 CFU/mL) with MRSA USA 300 and K. pneumoniae ATCC 700603 and incubated at 37 °C under shaking. Serial dilutions of the cultures were plated at each desired time point (0, 1, 3, 6, and 24 h), using a multichannel pipette as follows: in line 1 of a 96-well plate, 100 µL of bacterial suspension was added, while 90 µL of 0.9% sterile saline per well was added to the other lines. At selected time points, 100 µL of bacterial suspension was transferred from the time-kill assay plate to the first line. The wells were further diluted 1 in 10 (0.9% saline) for the appropriate number of dilutions and 10 μL of each dilution was spotted in duplicate onto MH agar plates, then incubated overnight at 37°C. The colonies in each spot were counted and used to calculate the number of viable CFU/mL remaining in the original culture by considering the dilution factors.
# [2] = tested on: K. pneumoniae ATCC 700603; assay: microbe, parasite or virus in culture; type: cell-based, Klebsiella pneumoniae
# Procedure: (§1) MRSA USA 300 and K. pneumoniae ATCC 700603 were employed to assess the development of resistance. From inoculated microtiter panels, an aliquot of the well with the highest concentration permitting growth was taken and back diluted in fresh media to a turbidity of a 0.5 McFarland standard. This suspension was then further diluted and used to inoculate a fresh MIC panel resulting in a final concentration of 5 × 10^6 CFU/mL. Panels were incubated according to CLSI guidelines (M07, 11th edition, 2018), MICs were recorded and the next inoculum was prepared from the well containing the highest concentration of drug that allowed growth in identical fashion as described above.
# [3] = tested on: MRSA USA 300; assay: microbe, parasite or virus in culture; type: cell-based, Staphylococcus aureus
# Procedure: as §1
smiles,measurement,setting,value
CC[C@@H](C)[C@@H](NC(=O)[C@@H](Cc1ccccc1)NC(=O)[C@@H](Cc1ccccc1)NC(=O)[C@@H](Cc1ccccc1)NC(=O)[C@H](N)Cc1ccccc1)C(=O)N[C@H](CCCNC(=N)N)C(=O)N[C@H](CCCNC(=N)N)C(=O)N[C@H](CC(C)C)C(=O)N[C@H](Cc1ccccc1)C(=O)N[C@H](CCCNC(=N)N)C(N)=O [RI-HT2] (H-[dF][dF][dF][dF][dI][dR][dR][dL][dF][dR]-NH2; N-terminus assumed),"viable count, time-kill","[1]; 2 × MIC, 0 h",17000000 CFU/mL and 16000000 CFU/mL
same,"viable count, time-kill","[1]; 2 × MIC, 1 h",18000 CFU/mL and 21000 CFU/mL and 20000 CFU/mL
same,"viable count, time-kill","[1]; 2 × MIC, 6 h",15000 CFU/mL and 12000 CFU/mL and 14000 CFU/mL
same,time to complete killing,[1]; 4 × MIC,3 h
same,"viable count, time-kill","[1]; 4 × MIC, 0 h",17000000 CFU/mL and 16000000 CFU/mL
same,"viable count, time-kill","[1]; 4 × MIC, 1 h",1300 CFU/mL and 1200 CFU/mL
same,"viable count, time-kill","[1]; 4 × MIC, 3 h",0 CFU/mL
same,"viable count, time-kill","[1]; 4 × MIC, 6 h",0 CFU/mL
same,"viable count, time-kill","[1]; 4 × MIC, 24 h",0 CFU/mL
same,"viable count, time-kill","[1]; 8 × MIC, 0 h",17000000 CFU/mL and 16000000 CFU/mL
same,"viable count, time-kill","[1]; 8 × MIC, 1 h",100 CFU/mL and 200 CFU/mL
same,"viable count, time-kill","[1]; 8 × MIC, 3 h",0 CFU/mL
same,"viable count, time-kill","[1]; 8 × MIC, 6 h",0 CFU/mL
same,"viable count, time-kill","[1]; 8 × MIC, 24 h",0 CFU/mL
same,"viable count, time-kill","[1]; MIC, 0 h",17000000 CFU/mL and 16000000 CFU/mL
same,"viable count, time-kill","[1]; MIC, 1 h",4500000 CFU/mL and 3500000 CFU/mL and 3700000 CFU/mL
same,"viable count, time-kill","[1]; MIC, 3 h",2300 CFU/mL and 1800 CFU/mL and 2200 CFU/mL
same,"viable count, time-kill","[1]; MIC, 6 h",230000 CFU/mL and 380000 CFU/mL and 310000 CFU/mL
same,"viable count, time-kill","[1]; MIC, 24 h",2000000000 CFU/mL and 3400000000 CFU/mL and 3000000000 CFU/mL
same,Concentration (MIC in drug resistance assay),"[2]; K. pneumoniae ATCC 700603, day 0",6.25 µg/mL
same,Concentration (MIC in drug resistance assay),"[2]; K. pneumoniae ATCC 700603, day 1",6.25 µg/mL
same,Concentration (MIC in drug resistance assay),"[2]; K. pneumoniae ATCC 700603, day 2",6.25 µg/mL
same,Concentration (MIC in drug resistance assay),"[2]; K. pneumoniae ATCC 700603, day 3",6.25 µg/mL
same,Concentration (MIC in drug resistance assay),"[2]; K. pneumoniae ATCC 700603, day 4",12.5 µg/mL
same,Concentration (MIC in drug resistance assay),"[2]; K. pneumoniae ATCC 700603, day 5",6.25 µg/mL
same,Concentration (MIC in drug resistance assay),"[2]; K. pneumoniae ATCC 700603, day 6",6.25 µg/mL
same,Concentration (MIC in drug resistance assay),"[2]; K. pneumoniae ATCC 700603, day 7",12.5 µg/mL
same,Concentration (MIC in drug resistance assay),"[2]; K. pneumoniae ATCC 700603, day 8",25 µg/mL
same,Concentration (MIC in drug resistance assay),"[2]; K. pneumoniae ATCC 700603, day 9",12.5 µg/mL
same,Concentration (MIC in drug resistance assay),"[2]; K. pneumoniae ATCC 700603, day 10",12.5 µg/mL
same,Concentration (MIC in drug resistance assay),"[2]; K. pneumoniae ATCC 700603, day 11",12.5 µg/mL
same,Concentration (MIC in drug resistance assay),"[2]; K. pneumoniae ATCC 700603, day 12",25 µg/mL
same,Concentration (MIC in drug resistance assay),"[2]; K. pneumoniae ATCC 700603, day 13",12.5 µg/mL
same,Concentration (MIC in drug resistance assay),"[2]; K. pneumoniae ATCC 700603, day 14",25 µg/mL
same,Concentration (MIC in drug resistance assay),"[2]; K. pneumoniae ATCC 700603, day 15",25 µg/mL
same,Concentration (MIC in drug resistance assay),"[2]; K. pneumoniae ATCC 700603, day 16",12.5 µg/mL
same,Concentration (MIC in drug resistance assay),"[2]; K. pneumoniae ATCC 700603, day 17",25 µg/mL
same,Concentration (MIC in drug resistance assay),"[2]; K. pneumoniae ATCC 700603, day 18",25 µg/mL
same,Concentration (MIC in drug resistance assay),"[2]; K. pneumoniae ATCC 700603, day 19",25 µg/mL
same,Concentration (MIC in drug resistance assay),"[2]; K. pneumoniae ATCC 700603, day 20",25 µg/mL
same,Concentration (MIC in drug resistance assay),"[2]; K. pneumoniae ATCC 700603, day 21",25 µg/mL
same,Concentration (MIC in drug resistance assay),"[2]; K. pneumoniae ATCC 700603, day 22",25 µg/mL
same,Concentration (MIC in drug resistance assay),"[2]; K. pneumoniae ATCC 700603, day 23",25 µg/mL
same,Concentration (MIC in drug resistance assay),"[2]; K. pneumoniae ATCC 700603, day 24",25 µg/mL
same,Concentration (MIC in drug resistance assay),"[2]; K. pneumoniae ATCC 700603, day 25",25 µg/mL
same,Concentration (MIC in drug resistance assay),"[2]; K. pneumoniae ATCC 700603, day 26",12.5 µg/mL
same,Concentration (MIC in drug resistance assay),"[2]; K. pneumoniae ATCC 700603, day 27",25 µg/mL
same,Concentration (MIC in drug resistance assay),"[2]; K. pneumoniae ATCC 700603, day 28",25 µg/mL
same,Concentration (MIC in drug resistance assay),"[2]; K. pneumoniae ATCC 700603, day 29",25 µg/mL
same,Concentration (MIC in drug resistance assay),"[2]; K. pneumoniae ATCC 700603, day 30",25 µg/mL
same,Concentration (MIC in drug resistance assay),"[2]; K. pneumoniae ATCC 700603, day 31",25 µg/mL
same,Concentration (MIC in drug resistance assay),"[2]; K. pneumoniae ATCC 700603, day 32",12.5 µg/mL
same,Concentration (MIC in drug resistance assay),"[2]; K. pneumoniae ATCC 700603, day 33",25 µg/mL
same,Concentration (MIC in drug resistance assay),"[2]; K. pneumoniae ATCC 700603, day 34",12.5 µg/mL
same,Concentration (MIC in drug resistance assay),"[2]; K. pneumoniae ATCC 700603, day 35",25 µg/mL
same,Concentration (MIC in drug resistance assay),"[2]; K. pneumoniae ATCC 700603, day 36",25 µg/mL
same,Concentration (MIC in drug resistance assay),"[2]; K. pneumoniae ATCC 700603, day 37",12.5 µg/mL
same,Concentration (MIC in drug resistance assay),"[2]; K. pneumoniae ATCC 700603, day 38",25 µg/mL
same,Concentration (MIC in drug resistance assay),"[2]; K. pneumoniae ATCC 700603, day 39",25 µg/mL
same,Concentration (MIC in drug resistance assay),"[2]; K. pneumoniae ATCC 700603, day 40",12.5 µg/mL
same,increase in MIC after 40 passages,[2]; serial passage at sub-MIC,four-fold
same,Concentration (MIC in drug resistance assay),"[3]; MRSA USA 300, day 0",2 µg/mL
same,Concentration (MIC in drug resistance assay),"[3]; MRSA USA 300, day 1",2 µg/mL
